Results on 16 compounds are retold here after PubChem BioAssay (NCI).

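The compound was tested at five concentrations on cells cultured in 96-well plates, with a 48-hour exposure period. GI50: concentration for 50% inhibition of growth. TGI: concentration producing complete growth inhibition.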 Where only a bound is given, the exact number is not on record here.

Assay in all cases: NCI tumour cell line growth inhibition, 48 h
The subject of assay [1] is CCRF-CEM leukemia.
For assay [2], the system named is COLO 205 colon.
Assay [3] concerns HOP-92 NSCLC.
Assay [4] concerns KM12 colon.
The test system of assay [5] is M14 melanoma.
Assay [6] relates to NCI-H460 lung.
The test system of assay [7] is NCI-H522 lung.
Assay [8] has as its system T-47D breast.
Assay [9] relates to UACC-257 melanoma.
Assay [10] relates to MCF7 breast.

Take `Nc1c([N+](=O)[O-])cc2c3c(cccc13)CC2`: the TGI in assay [1], in assay [2], in assay [3], in assay [4], in assay [5] and in [6] was above 100 µM each time. Besides, the TGI in assay [7], in [8] and in assay [9] was above 100 µM throughout.
With `COc1cc(NC(=O)CSc2nc3ccc(C)cc3c(=O)n2Cc2ccccc2)cc(OC)c1OC`, the GI50 is above 100 µM in assay [1]; above 100 µM in assay [2]; 29.9 µM in assay [4]; 8.38 µM in assay [5]; 9.98 µM in assay [10]; 7.24 µM in assay [6]. In addition, the GI50 in [7] is 4.63 µM; in [8] it was 4.01 µM; in assay [9] it was 4.86 µM. The TGI in assay [1], in assay [2], in [4], in assay [5], in assay [10] and in [6] was above 100 µM each time. Besides, the values for the TGI in assay [7], in [8] and in assay [9] were 47 µM, 66.9 µM and above 100 µM, respectively.
`CN(C)CCNC(=O)c1cccc2[nH]c(-c3cccnc3)nc12`: the TGI in [1] is above 100 µM; in [2], 32.5 µM; in [3] it was 53.9 µM; in [4], above 100 µM; in assay [5], 43.8 µM; in assay [6], 49.9 µM. This compound had a TGI in [9] of 39.9 µM.
For the compound `O=[N+]([O-])c1cc(C2SCc3nc4ccccc4n32)ccc1Cl` (centres undefined), the TGI in [1] was 85.9 µM; in assay [2], 46.6 µM; in [3] it was 49.3 µM; in assay [4], 31.3 µM; in assay [6] it was above 100 µM; in assay [7], 77.1 µM. Moreover, the TGI in [9] worked out at 53.1 µM.
Consider `O=C(O)CNS(=O)(=O)c1ccc(NC(=O)CI)cc1`, for which the TGI turned out to be 5.85 µM in assay [1]; 96.8 µM in assay [2]; 36.4 µM in assay [3]; 68.5 µM in [4]; 44.3 µM in assay [5]; 64 µM in assay [6]. Moreover, the TGI in [7] is 4.4 µM; in assay [9], above 100 µM.
`O=Cc1ccccc1B(O)O`: the TGI in [1] was 40 µM; in [2], 40.3 µM; in [4], above 100 µM; in assay [5] it was above 100 µM; in assay [10], above 100 µM; in assay [6] it was above 100 µM. Further, the TGI is 97.9 µM in assay [7], 62.4 µM in assay [8] and above 100 µM in assay [9].
In the case of `O=C(O)CCSC(=O)Nc1ccccc1F`, the TGI in assay [1], in assay [2], in assay [4], in [5], in assay [6] and in assay [7] was above 100 µM in each case.
In the case of `C[N+]1(C)C/C(=C\c2ccccc2)C(=O)/C(=C/c2ccccc2)C1`, the TGI in assay [1], in assay [2], in [3], in [4], in [5] and in assay [6] was above 100 µM each time. The TGI in assay [9] was above 100 µM.
With `C/C=C1/CCC2c3[nH]c4ccccc4c3CCN2C1` (centres undefined), the TGI in assay [1] is above 100 µM; in assay [3], 86.6 µM; in assay [4], above 100 µM; in [5] it was 33.2 µM; in [6], above 100 µM; in [7], above 100 µM. This compound also came in with a TGI in assay [9] above 100 µM.
As for `c1ccc2cc3[s+]snc3cc2c1`, the TGI in assay [1], in [2], in assay [4], in assay [5], in assay [6] and in assay [7] was above 100 µM throughout. Also, the TGI in assay [9] is above 100 µM.
On to `O=C1CCCC(=O)N1CCc1c[nH]c2ccccc12`, for which the TGI in assay [1], in assay [3], in [4], in assay [5], in assay [6] and in assay [9] was above 100 µM each time.
Consider `Fc1ccccc1C1SCc2nc3ccccc3n21` (centres undefined), for which the TGI was above 100 µM in [1]; above 100 µM in [2]; 72.7 µM in assay [3]; above 100 µM in assay [4]; above 100 µM in [6]; above 100 µM in assay [7]. The TGI in assay [9] was above 100 µM.
Turning to `NCCN.NCCN.O=C([O-])CCl.O=C([O-])CCl.[Co+3].[O-][Cl+3]([O-])([O-])[O-]`, the GI50 in [1], in assay [2], in [3], in assay [4], in [5] and in [6] was above 100 µM in each case. In addition, the GI50 in assay [7] and in assay [9] was above 100 µM throughout. For the same compound, the TGI in assay [1], in [2], in assay [3], in [4], in [5] and in assay [6] was above 100 µM each time. The TGI in assay [7] and in assay [9] was above 100 µM throughout.
Consider `Cc1ccc([N+](=O)[O-])cc1NC(=O)c1cccc([N+](=O)[O-])c1O`, for which the TGI in assay [1] was 83.7 µM; in assay [2] it was 32.2 µM; in assay [4], 87.2 µM; in assay [5], 56.7 µM; in assay [6], above 100 µM; in assay [7], 26.6 µM. The TGI in assay [9] came to 39.5 µM.
As to `Cc1[nH]c(=O)n2c(C)nnc2c1C(=O)Nc1cc(Cl)cc(Cl)c1`, the TGI in assay [1] was above 100 µM; in assay [2], 79.4 µM; in assay [3], 64 µM; in [4] it was above 100 µM; in assay [5] it was above 100 µM; in [6] it was above 100 µM. Also, the TGI in [7] was determined as 28.2 µM.
On to `Cc1cc(NS(=O)(=O)c2ccc(NC(=O)c3ccc(Cl)c4c(Nc5ccc(S(=O)(=O)N=C(N)N)cc5)c5ccccc5nc34)cc2)no1`, for which the TGI in assay [1] was 67.2 µM; in assay [4] it was above 100 µM; in [5] it was above 100 µM; in assay [6], above 100 µM; in assay [7], 61.6 µM; in assay [9] it was above 100 µM.
